The values that follow are results of earlier work, collected in patent US10398705B2, “Pharmaceutical tablet formulation for the veterinary medical sector, method of production and use thereof” (BOEHRINGER INGELHEIM VETMEDICA GMBH, priority 2012, dated 2019).

For the data set the following is noted: known property; background description.

On to `COc1ccc(-c2nc3ccc(C4=NNC(=O)CC4C)cc3[nH]2)cc1` (racemic) [pimobendan, (RS)-6-[2-(4-methoxyphenyl)-1H-benzimidazol-5-yl]-5-methyl-4,5-dihydropyridazin-3(2H)-one], for which the solubility entry is “poor and pH-dependent solubility”.

For the compound `CCOC(=O)[C@H](CCc1ccccc1)N[C@H]1CCc2ccccc2N(CC(=O)O)C1=O` (relative stereo) [benazepril, [S—(R*,R*J]-3-[[1-(ethoxycarbonyl)-3-phenylpropyl]amino]-2,3,4,5-tetrahydro-2-oxo-1H-1-benzazepin-1-acetic acid], the solubility result is recorded as “well water-soluble”.
